# Assay results reported in ChEMBL document CHEMBL3596127, “Design, synthesis and molecular docking of novel bipyrazolyl thiazolone scaffold as a new class of antibacterial agents” (Medchemcomm, 2014).
# Tested on: Bacillus spizizenii
# Test: Antibacterial activity against Bacillus subtilis ATCC 6633 after 24 hrs by MTT assay
# Type: functional
# Conditions: ATCC 6633, 24 h
row,Structure (SMILES),MIC [µg/mL]
1,Cc1nn(-c2ccccc2)c(-n2ccnc2)c1C1CC(c2cccs2)=NN1C1=NC(=O)/C(=C/c2ccco2)S1 (configuration not stated),25
2,Cc1nn(-c2ccccc2)c(-n2cnc3ccccc32)c1C1CC(c2cccs2)=NN1C1=NC(=O)/C(=C/c2c[nH]c3ccccc23)S1 (configuration not stated),12.5
3,Cc1nn(-c2ccccc2)c(-n2nnc3ccccc32)c1C1CC(c2cccs2)=NN1C1=NC(=O)/C(=C/c2ccco2)S1 (configuration not stated),> 50
4,Cc1nn(-c2ccccc2)c(-n2cnc3ccccc32)c1C1CC(c2cccs2)=NN1C1=NC(=O)/C(=C/c2cccs2)S1 (configuration not stated),3.13
5,Cc1nn(-c2ccccc2)c(-n2nnc3ccccc32)c1C1CC(c2cccs2)=NN1C1=NC(=O)/C(=C/c2c[nH]c3ccccc23)S1 (configuration not stated),> 50
6,Cc1nn(-c2ccccc2)c(-n2nnc3ccccc32)c1C1CC(c2cccs2)=NN1C1=NC(=O)/C(=C/c2cccs2)S1 (configuration not stated),12.5
7,Cc1nn(-c2ccccc2)c(-n2ccnc2)c1C1CC(c2cccs2)=NN1C1=NC(=O)/C(=C/c2cccs2)S1 (configuration not stated),> 50

# Tested on: Pseudomonas aeruginosa
# Test: Antibacterial activity against Pseudomonas aeruginosa ATCC 13525 after 24 hrs by MTT assay
# Type: functional
# Conditions: ATCC 13525, 24 h
row,Structure (SMILES),MIC [µg/mL]
1,Cc1nn(-c2ccccc2)c(-n2ccnc2)c1C1CC(c2cccs2)=NN1C1=NC(=O)/C(=C/c2ccco2)S1 (configuration not stated),> 50
2,Cc1nn(-c2ccccc2)c(-n2cnc3ccccc32)c1C1CC(c2cccs2)=NN1C1=NC(=O)/C(=C/c2c[nH]c3ccccc23)S1 (configuration not stated),12.5
3,Cc1nn(-c2ccccc2)c(-n2nnc3ccccc32)c1C1CC(c2cccs2)=NN1C1=NC(=O)/C(=C/c2ccco2)S1 (configuration not stated),6.25
4,Cc1nn(-c2ccccc2)c(-n2cnc3ccccc32)c1C1CC(c2cccs2)=NN1C1=NC(=O)/C(=C/c2cccs2)S1 (configuration not stated),25
5,Cc1nn(-c2ccccc2)c(-n2nnc3ccccc32)c1C1CC(c2cccs2)=NN1C1=NC(=O)/C(=C/c2c[nH]c3ccccc23)S1 (configuration not stated),6.25
6,Cc1nn(-c2ccccc2)c(-n2nnc3ccccc32)c1C1CC(c2cccs2)=NN1C1=NC(=O)/C(=C/c2cccs2)S1 (configuration not stated),6.25
7,Cc1nn(-c2ccccc2)c(-n2ccnc2)c1C1CC(c2cccs2)=NN1C1=NC(=O)/C(=C/c2cccs2)S1 (configuration not stated),25

# Tested on: Staphylococcus aureus
# Test: Antibacterial activity against Staphylococcus aureus ATCC 6538 after 24 hrs by MTT assay
# Type: functional
# Conditions: ATCC 6538, 24 h
row,Structure (SMILES),MIC [µg/mL]
1,Cc1nn(-c2ccccc2)c(-n2ccnc2)c1C1CC(c2cccs2)=NN1C1=NC(=O)/C(=C/c2ccco2)S1 (configuration not stated),6.25
2,Cc1nn(-c2ccccc2)c(-n2cnc3ccccc32)c1C1CC(c2cccs2)=NN1C1=NC(=O)/C(=C/c2c[nH]c3ccccc23)S1 (configuration not stated),50
3,Cc1nn(-c2ccccc2)c(-n2nnc3ccccc32)c1C1CC(c2cccs2)=NN1C1=NC(=O)/C(=C/c2ccco2)S1 (configuration not stated),50
4,Cc1nn(-c2ccccc2)c(-n2cnc3ccccc32)c1C1CC(c2cccs2)=NN1C1=NC(=O)/C(=C/c2cccs2)S1 (configuration not stated),25
5,Cc1nn(-c2ccccc2)c(-n2nnc3ccccc32)c1C1CC(c2cccs2)=NN1C1=NC(=O)/C(=C/c2c[nH]c3ccccc23)S1 (configuration not stated),25
6,Cc1nn(-c2ccccc2)c(-n2nnc3ccccc32)c1C1CC(c2cccs2)=NN1C1=NC(=O)/C(=C/c2cccs2)S1 (configuration not stated),> 50
7,Cc1nn(-c2ccccc2)c(-n2ccnc2)c1C1CC(c2cccs2)=NN1C1=NC(=O)/C(=C/c2cccs2)S1 (configuration not stated),25

# Tested on: not listed separately
# Test: Hemolytic activity in RBC (unknown origin)
# Type: ADME, cell-based
# Conditions: erythrocyte
row,Structure (SMILES),LC30 [µg/mL]
1,Cc1nn(-c2ccccc2)c(-n2ccnc2)c1C1CC(c2cccs2)=NN1C1=NC(=O)/C(=C/c2ccco2)S1 (configuration not stated),> 10000
2,Cc1nn(-c2ccccc2)c(-n2cnc3ccccc32)c1C1CC(c2cccs2)=NN1C1=NC(=O)/C(=C/c2c[nH]c3ccccc23)S1 (configuration not stated),> 10000
3,Cc1nn(-c2ccccc2)c(-n2nnc3ccccc32)c1C1CC(c2cccs2)=NN1C1=NC(=O)/C(=C/c2ccco2)S1 (configuration not stated),> 10000
4,Cc1nn(-c2ccccc2)c(-n2cnc3ccccc32)c1C1CC(c2cccs2)=NN1C1=NC(=O)/C(=C/c2cccs2)S1 (configuration not stated),> 10000
5,Cc1nn(-c2ccccc2)c(-n2nnc3ccccc32)c1C1CC(c2cccs2)=NN1C1=NC(=O)/C(=C/c2c[nH]c3ccccc23)S1 (configuration not stated),> 10000
6,Cc1nn(-c2ccccc2)c(-n2nnc3ccccc32)c1C1CC(c2cccs2)=NN1C1=NC(=O)/C(=C/c2cccs2)S1 (configuration not stated),> 10000
7,Cc1nn(-c2ccccc2)c(-n2ccnc2)c1C1CC(c2cccs2)=NN1C1=NC(=O)/C(=C/c2cccs2)S1 (configuration not stated),> 10000

# Tested on: Escherichia coli
# Test: Antibacterial activity against Escherichia coli ATCC 35218 after 24 hrs by MTT assay
# Type: functional
# Conditions: ATCC 35218, 24 h
row,Structure (SMILES),MIC [µg/mL]
1,Cc1nn(-c2ccccc2)c(-n2ccnc2)c1C1CC(c2cccs2)=NN1C1=NC(=O)/C(=C/c2ccco2)S1 (configuration not stated),25
2,Cc1nn(-c2ccccc2)c(-n2cnc3ccccc32)c1C1CC(c2cccs2)=NN1C1=NC(=O)/C(=C/c2c[nH]c3ccccc23)S1 (configuration not stated),3.13
3,Cc1nn(-c2ccccc2)c(-n2nnc3ccccc32)c1C1CC(c2cccs2)=NN1C1=NC(=O)/C(=C/c2ccco2)S1 (configuration not stated),> 50
4,Cc1nn(-c2ccccc2)c(-n2cnc3ccccc32)c1C1CC(c2cccs2)=NN1C1=NC(=O)/C(=C/c2cccs2)S1 (configuration not stated),25
5,Cc1nn(-c2ccccc2)c(-n2nnc3ccccc32)c1C1CC(c2cccs2)=NN1C1=NC(=O)/C(=C/c2c[nH]c3ccccc23)S1 (configuration not stated),3.13
6,Cc1nn(-c2ccccc2)c(-n2nnc3ccccc32)c1C1CC(c2cccs2)=NN1C1=NC(=O)/C(=C/c2cccs2)S1 (configuration not stated),50
7,Cc1nn(-c2ccccc2)c(-n2ccnc2)c1C1CC(c2cccs2)=NN1C1=NC(=O)/C(=C/c2cccs2)S1 (configuration not stated),> 50

# Tested on: not listed separately
# Test: Inhibition of full-length N-terminal His-tagged Escherichia coli FabH expressed in Escherichia coli BL21 (DE3) using acetyl-CoA/[3H]-acetyl-CoA/holo-ACP as substrate by liquid scintillation counting analysis
# Conditions: not given
row,Structure (SMILES),IC50 [µM]
1,Cc1nn(-c2ccccc2)c(-n2ccnc2)c1C1CC(c2cccs2)=NN1C1=NC(=O)/C(=C/c2ccco2)S1 (configuration not stated),12.8
2,Cc1nn(-c2ccccc2)c(-n2cnc3ccccc32)c1C1CC(c2cccs2)=NN1C1=NC(=O)/C(=C/c2c[nH]c3ccccc23)S1 (configuration not stated),2.5
3,Cc1nn(-c2ccccc2)c(-n2nnc3ccccc32)c1C1CC(c2cccs2)=NN1C1=NC(=O)/C(=C/c2ccco2)S1 (configuration not stated),21.9
4,Cc1nn(-c2ccccc2)c(-n2cnc3ccccc32)c1C1CC(c2cccs2)=NN1C1=NC(=O)/C(=C/c2cccs2)S1 (configuration not stated),9.1
5,Cc1nn(-c2ccccc2)c(-n2nnc3ccccc32)c1C1CC(c2cccs2)=NN1C1=NC(=O)/C(=C/c2c[nH]c3ccccc23)S1 (configuration not stated),3.1
6,Cc1nn(-c2ccccc2)c(-n2nnc3ccccc32)c1C1CC(c2cccs2)=NN1C1=NC(=O)/C(=C/c2cccs2)S1 (configuration not stated),17.5
7,Cc1nn(-c2ccccc2)c(-n2ccnc2)c1C1CC(c2cccs2)=NN1C1=NC(=O)/C(=C/c2cccs2)S1 (configuration not stated),11.3
